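Compound exposure: 48 hours, 5 concentrations, 96-well plates. GI50 marks 50% less growth. The concentration for full growth arrest is given as TGI.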
How the values were obtained:
Test in all cases: NCI tumour cell line growth inhibition, 48 h
K-562 leukemia = tested on: K-562 leukemia
MCF7 breast = tested on: MCF7 breast
HL-60(TB) leukemia = tested on: HL-60(TB) leukemia
SR leukemia = tested on: SR leukemia
MOLT-4 leukemia = tested on: MOLT-4 leukemia
SK-MEL-2 melanoma = tested on: SK-MEL-2 melanoma
HOP-92 NSCLC = tested on: HOP-92 NSCLC
SF-268 CNS = tested on: SF-268 CNS
RXF 393 renal = tested on: RXF 393 renal
BT-549 breast = tested on: BT-549 breast
NCI-H522 lung = tested on: NCI-H522 lung
ACHN renal = tested on: ACHN renal
MALME-3M melanoma = tested on: MALME-3M melanoma
U251 CNS = tested on: U251 CNS
NCI-H460 lung = tested on: NCI-H460 lung
A498 renal = tested on: A498 renal
OVCAR-4 ovarian = tested on: OVCAR-4 ovarian
SK-OV-3 ovarian = tested on: SK-OV-3 ovarian
OVCAR-8 ovarian = tested on: OVCAR-8 ovarian
SK-MEL-28 melanoma = tested on: SK-MEL-28 melanoma
KM12 colon = tested on: KM12 colon
SN12C renal = tested on: SN12C renal
HS 578T breast = tested on: HS 578T breast
NCI-H226 lung = tested on: NCI-H226 lung
COLO 205 colon = tested on: COLO 205 colon
MDA-MB-231 breast = tested on: MDA-MB-231 breast
SF-295 CNS = tested on: SF-295 CNS
RPMI-8226 leukemia = tested on: RPMI-8226 leukemia
SW-620 colon = tested on: SW-620 colon
SF-539 CNS = tested on: SF-539 CNS
MDA-MB-435 = tested on: MDA-MB-435
SNB-19 CNS = tested on: SNB-19 CNS
IGROV1 ovarian = tested on: IGROV1 ovarian
SK-MEL-5 melanoma = tested on: SK-MEL-5 melanoma
CCRF-CEM leukemia = tested on: CCRF-CEM leukemia
HOP-62 NSCLC = tested on: HOP-62 NSCLC
SNB-75 CNS = tested on: SNB-75 CNS
UACC-257 melanoma = tested on: UACC-257 melanoma
A549 NSCLC = tested on: A549 NSCLC
T-47D breast = tested on: T-47D breast
UO-31 renal = tested on: UO-31 renal
DU-145 prostate = tested on: DU-145 prostate
M14 melanoma = tested on: M14 melanoma
HCT-15 colon = tested on: HCT-15 colon
PC-3 prostate = tested on: PC-3 prostate
HCC-2998 colon = tested on: HCC-2998 colon
786-0 renal = tested on: 786-0 renal
UACC-62 melanoma = tested on: UACC-62 melanoma
HCT-116 colon = tested on: HCT-116 colon
CAKI-1 renal = tested on: CAKI-1 renal
HT29 colon = tested on: HT29 colon
EKVX NSCLC = tested on: EKVX NSCLC
OVCAR-5 ovarian = tested on: OVCAR-5 ovarian
LOX IMVI melanoma = tested on: LOX IMVI melanoma

`CO/N=C1\CCc2c(sc(NC(=O)c3cccc(C(F)(F)F)c3)c2C(N)=O)C1` gave a GI50 (K-562 leukemia) greater than 100000 nM, a TGI (K-562 leukemia) greater than 100000 nM and a GI50 (MCF7 breast) of 2370 nM. The TGI (MCF7 breast) was greater than 100000 nM, the GI50 (HL-60(TB) leukemia) was greater than 100000 nM and the TGI (HL-60(TB) leukemia) was greater than 100000 nM. For the same compound, the GI50 (SR leukemia) was greater than 100000 nM, the TGI (SR leukemia) was greater than 100000 nM and the GI50 (MOLT-4 leukemia) was greater than 100000 nM. It also gave a TGI (MOLT-4 leukemia) greater than 100000 nM, a GI50 (SK-MEL-2 melanoma) of 4080 nM and a TGI (SK-MEL-2 melanoma) of 96300 nM. For the same compound, the GI50 (HOP-92 NSCLC) was 1560 nM, the TGI (HOP-92 NSCLC) was 4060 nM and the GI50 (SF-268 CNS) was 4250 nM. It also gave a TGI (SF-268 CNS) greater than 100000 nM, a GI50 (RXF 393 renal) of 1910 nM and a TGI (RXF 393 renal) of 3650 nM. The GI50 (BT-549 breast) was 3530 nM and the TGI (BT-549 breast) was greater than 100000 nM.
For `CCNC(=O)N1CCc2cc(OC)c(OCCc3ccc(OC)cc3)cc2C1c1ccc([N+](=O)[O-])cc1C` (stereo unspecified), the GI50 (K-562 leukemia) was 381 nM, the TGI (K-562 leukemia) was greater than 100000 nM and the GI50 (NCI-H522 lung) was 730 nM. The TGI (NCI-H522 lung) was 3410 nM, the GI50 (ACHN renal) was 875 nM and the TGI (ACHN renal) was greater than 100000 nM. For the same compound, the GI50 (MALME-3M melanoma) was 4120 nM, the TGI (MALME-3M melanoma) was greater than 100000 nM and the GI50 (U251 CNS) was 580 nM. For the same compound, the TGI (U251 CNS) was greater than 100000 nM, the GI50 (NCI-H460 lung) was 368 nM and the TGI (NCI-H460 lung) was 3300 nM. For the same compound, the GI50 (A498 renal) was 1550 nM, the TGI (A498 renal) was 6690 nM and the GI50 (OVCAR-4 ovarian) was 2800 nM. For the same compound, the TGI (OVCAR-4 ovarian) was greater than 100000 nM, the GI50 (SK-OV-3 ovarian) was 2830 nM and the TGI (SK-OV-3 ovarian) was greater than 100000 nM. For the same compound, the GI50 (OVCAR-8 ovarian) was 812 nM, the TGI (OVCAR-8 ovarian) was greater than 100000 nM and the GI50 (SK-MEL-28 melanoma) was 869 nM. For the same compound, the TGI (SK-MEL-28 melanoma) was greater than 100000 nM, the GI50 (KM12 colon) was 4640 nM and the TGI (KM12 colon) was greater than 100000 nM. The GI50 (SN12C renal) was 1840 nM, the TGI (SN12C renal) was greater than 100000 nM and the GI50 (HS 578T breast) was 1570 nM. The TGI (HS 578T breast) was 7350 nM, the GI50 (NCI-H226 lung) was 2090 nM and the TGI (NCI-H226 lung) was greater than 100000 nM. For the same compound, the GI50 (MCF7 breast) was 540 nM, the TGI (MCF7 breast) was greater than 100000 nM and the GI50 (COLO 205 colon) was 797 nM. The TGI (COLO 205 colon) was greater than 100000 nM, the GI50 (MDA-MB-231 breast) was 797 nM and the TGI (MDA-MB-231 breast) was greater than 100000 nM. It also gave a GI50 (HL-60(TB) leukemia) of 608 nM, a TGI (HL-60(TB) leukemia) of 10600 nM and a GI50 (SF-295 CNS) of 576 nM. The TGI (SF-295 CNS) was greater than 100000 nM, the GI50 (RPMI-8226 leukemia) was 631 nM and the TGI (RPMI-8226 leukemia) was 7140 nM. It also gave a GI50 (SW-620 colon) of 551 nM, a TGI (SW-620 colon) greater than 100000 nM and a GI50 (SR leukemia) of 327 nM. It also gave a TGI (SR leukemia) greater than 100000 nM, a GI50 (SF-539 CNS) of 702 nM and a TGI (SF-539 CNS) of 6770 nM. The GI50 (MDA-MB-435) was 491 nM, the TGI (MDA-MB-435) was greater than 100000 nM and the GI50 (SNB-19 CNS) was 1330 nM. The TGI (SNB-19 CNS) was greater than 100000 nM, the GI50 (IGROV1 ovarian) was 759 nM and the TGI (IGROV1 ovarian) was greater than 100000 nM. The GI50 (MOLT-4 leukemia) was 485 nM, the TGI (MOLT-4 leukemia) was greater than 100000 nM and the GI50 (SK-MEL-2 melanoma) was 2370 nM. For the same compound, the TGI (SK-MEL-2 melanoma) was greater than 100000 nM, the GI50 (HOP-92 NSCLC) was 1040 nM and the TGI (HOP-92 NSCLC) was 8030 nM. The GI50 (SK-MEL-5 melanoma) was 794 nM, the TGI (SK-MEL-5 melanoma) was 3590 nM and the GI50 (CCRF-CEM leukemia) was 662 nM. For the same compound, the TGI (CCRF-CEM leukemia) was greater than 100000 nM, the GI50 (SF-268 CNS) was 881 nM and the TGI (SF-268 CNS) was greater than 100000 nM. It also gave a GI50 (HOP-62 NSCLC) of 2280 nM, a TGI (HOP-62 NSCLC) greater than 100000 nM and a GI50 (SNB-75 CNS) of 680 nM. The TGI (SNB-75 CNS) was 6950 nM, the GI50 (UACC-257 melanoma) was 3540 nM and the TGI (UACC-257 melanoma) was greater than 100000 nM. It also gave a GI50 (A549 NSCLC) of 840 nM, a TGI (A549 NSCLC) greater than 100000 nM and a GI50 (T-47D breast) of 3340 nM. The TGI (T-47D breast) was greater than 100000 nM, the GI50 (UO-31 renal) was 1540 nM and the TGI (UO-31 renal) was greater than 100000 nM. It also gave a GI50 (DU-145 prostate) of 1870 nM, a TGI (DU-145 prostate) greater than 100000 nM and a GI50 (M14 melanoma) of 759 nM. The TGI (M14 melanoma) was greater than 100000 nM, the GI50 (HCT-15 colon) was 382 nM and the TGI (HCT-15 colon) was greater than 100000 nM. For the same compound, the GI50 (PC-3 prostate) was 559 nM, the TGI (PC-3 prostate) was greater than 100000 nM and the GI50 (HCC-2998 colon) was 1950 nM. The TGI (HCC-2998 colon) was greater than 100000 nM, the GI50 (786-0 renal) was 619 nM and the TGI (786-0 renal) was greater than 100000 nM. It also gave a GI50 (UACC-62 melanoma) of 547 nM, a TGI (UACC-62 melanoma) greater than 100000 nM and a GI50 (HCT-116 colon) of 437 nM. For the same compound, the TGI (HCT-116 colon) was greater than 100000 nM, the GI50 (CAKI-1 renal) was 1090 nM and the TGI (CAKI-1 renal) was greater than 100000 nM. For the same compound, the GI50 (HT29 colon) was 706 nM, the TGI (HT29 colon) was 6040 nM and the GI50 (BT-549 breast) was 1670 nM. The TGI (BT-549 breast) was 6120 nM, the GI50 (EKVX NSCLC) was greater than 100000 nM and the TGI (EKVX NSCLC) was greater than 100000 nM. For the same compound, the GI50 (OVCAR-5 ovarian) was 2140 nM, the TGI (OVCAR-5 ovarian) was greater than 100000 nM and the GI50 (LOX IMVI melanoma) was 387 nM. It also gave a TGI (LOX IMVI melanoma) of 7650 nM.

Source: PubChem BioAssay (NCI)
